In ChEMBL document CHEMBL4002542, “Rapid preparation of (3R,4S,5R) polyhydroxylated pyrrolidine-based libraries to discover a pharmacological chaperone for treatment of Fabry disease” (Eur J Med Chem, 2017):
Numbering of substitutions follows the chain as printed. Activity calls are given as the source filed them. The rule behind the calls is not given here.

Tests used:
[1] = biological target: T1, Alpha-galactosidase A (Homo sapiens, UniProt P06280); experiment: Non-competitive inhibition of recombinant human alpha GAL-A using varying levels of 4-methylumbelliferyl alpha-D-galactopyranoside substrate at pH 4.6 Lineweaver-burk plot analysis
T1 sequence (P06280 whole entry): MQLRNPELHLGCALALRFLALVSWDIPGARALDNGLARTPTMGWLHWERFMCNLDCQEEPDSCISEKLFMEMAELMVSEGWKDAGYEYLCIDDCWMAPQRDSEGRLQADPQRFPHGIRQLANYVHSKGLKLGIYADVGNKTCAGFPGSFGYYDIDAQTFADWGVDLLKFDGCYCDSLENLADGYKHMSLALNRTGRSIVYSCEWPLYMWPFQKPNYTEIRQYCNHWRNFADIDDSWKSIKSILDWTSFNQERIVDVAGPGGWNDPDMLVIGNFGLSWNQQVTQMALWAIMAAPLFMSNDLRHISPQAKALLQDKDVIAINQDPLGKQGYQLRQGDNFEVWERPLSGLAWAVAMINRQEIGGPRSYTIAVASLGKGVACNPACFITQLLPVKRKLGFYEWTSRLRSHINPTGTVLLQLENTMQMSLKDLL

[2] = biological target: T2, Beta-galactosidase (Homo sapiens) (UniProt P16278); experiment: Inhibition of human lymphocyte beta-galactosidase at 100 uM using p-nitrophenyl-glycopyranoside or 4-methylumbelliferyl-glycopyranoside as substrate by spectrophotometric method relative to control
T2 sequence (whole entry): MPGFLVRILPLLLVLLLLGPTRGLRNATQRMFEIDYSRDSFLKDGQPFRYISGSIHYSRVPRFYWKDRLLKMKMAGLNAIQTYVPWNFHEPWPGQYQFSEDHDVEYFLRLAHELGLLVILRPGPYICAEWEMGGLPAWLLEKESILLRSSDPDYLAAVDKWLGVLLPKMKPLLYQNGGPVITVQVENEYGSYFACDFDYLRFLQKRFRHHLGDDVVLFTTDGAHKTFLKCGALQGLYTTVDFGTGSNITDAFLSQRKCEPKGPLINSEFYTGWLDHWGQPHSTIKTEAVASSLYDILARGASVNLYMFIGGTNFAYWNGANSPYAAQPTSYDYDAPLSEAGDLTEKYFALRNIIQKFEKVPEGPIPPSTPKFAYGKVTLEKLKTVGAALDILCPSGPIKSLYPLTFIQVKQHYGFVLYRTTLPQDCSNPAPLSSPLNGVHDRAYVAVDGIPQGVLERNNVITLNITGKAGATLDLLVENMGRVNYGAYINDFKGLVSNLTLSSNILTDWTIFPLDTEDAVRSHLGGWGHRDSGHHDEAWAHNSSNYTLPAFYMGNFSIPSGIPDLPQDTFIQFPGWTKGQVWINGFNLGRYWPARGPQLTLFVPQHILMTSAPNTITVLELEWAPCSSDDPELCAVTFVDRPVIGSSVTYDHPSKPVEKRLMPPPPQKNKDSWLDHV

[3] = test system: T3, Alpha-galactosidase A (Homo sapiens), P06280 [R301Q]; experiment: Chaperone activity assessed as enhancement of human alpha GAL-A R301Q mutant enzyme activity expressed in COS7 cells at 10 to 100 uM at pH 4.6 pretreated for 60 hrs followed by 4MU-alpha-galactopyranoside substrate addition in presence of N-acetylgalactosamine measured after 1 hr by fluorescence assay relative to control; format: cell-based
T3 sequence (whole entry): T1 sequence (P06280 whole entry) with R301Q

For `O=C(CCCCC1CCCCC1)NC[C@H]1N[C@H](CO)[C@H](O)[C@@H]1O`, the Ki [1] was 7.7 µM, the inhibition [2] was under 5% and the Activity [3] was “Active”.
